The source of these data is patent EP1043336A2, “Stereospecific antibodies for imidazolinone herbicides” (The Regents of the University of California, priority 1999, dated 2000).

Holding throughout (type): binding, mouse
In experiment [1] the target is MAb 3A2. Description: Kinetic exclusion fluoroimmunoassay (KinExA), equilibrium dissociation constant. The note with it: hapten conjugate 16-BSA, racemic hapten conjugate. The procedure: (§1) 1. Binding Kinetics. The equilibrium dissociation constants (KD) for MAbs 3A2 and 3A5 were measured by kinetic exclusion fluoroimmunoassay (KinExA) (Blake, D. A., et al. 1997. Characterization of a metal-specific monoclonal antibody. In: Immunochemical Technology for Environmental Applications (ACS Symposium Series 657), eds. DS Aga, EM Thurmann, pp. 49-60. Washington, D.C.: American Chemical Society.), and also in a Pharmacia BIAcore surface plasmon resonance instrument (Malmborg, A.-C. and Borrebaeck, C. A. K. 1995. BIAcore as a tool in antibody engineering. J. Immunol. Methods 183: 7-13.). Since the hapten conjugates used in these rate studies were racemic mixtures, the dissociation constants obtained can only be a median rate for the different chiral isomers.
(§2) The KinExA directly measures free antibody in solution equilibrium by trapping it on beads coated with hapten conjugate. […] 2. […] 4.

Experiment [2] deals with MAb 3A5 (VH and VL N-termini SEQ.ID NOS. 1 and 2). The experiment is described as above. The settings on record: hapten conjugate 16-BSA, racemic hapten conjugate. The protocol: as §1, §2
Experiment [3] concerns the target MAb 3A2. Description: BIAcore surface plasmon resonance, equilibrium dissociation constant. The note with it: racemic hapten conjugate. The procedure:
as §1, §2
On the technique in general: In SPR one partner is held on a chip, and binding of the other changes the refractive index at the surface.

The target in experiment [4] is MAb 3A5 (VH and VL N-termini SEQ.ID NOS. 1 and 2). Described as above. The settings on record: racemic hapten conjugate. The protocol: as §1, §2
The subject of experiment [5] is panel of monoclonal antibodies (MAbs). Kind of experiment: Detection of imidazolinones by the panel of MAbs (EIA). The protocol: EIAs were done essentially as described by Karu et al (1994). For indirect EIAs, hapten-protein conjugates were adsorbed to wells of Immulon 2™ 96-well plates (Dynatech) in 0.1 mL of coating buffer (0.015 M Na2CO3 ― 0.035 M NaHCO3 ―0.003 M NaN3, pH 9.6). PBS-Tween containing 0.05% gelatin, 0.45 micron-filtered, was used as the diluent for antibodies and antibody-analyte mixtures, and as a blocking solution to prevent adventitious binding. The detecting antibody for the indirect EIAs was alkaline phosphatase conjugated goat anti-mouse IgG and IgM The substrate solution for color development was p-nitrophenyl phosphate 1 mg/mL, in 10% (w/v) diethanolamine-HCl, pH 9.8 ― 0.5 mM MgCl2 ― 3 mM NaN3. • 1. Indirect competition EIA. Indirect competition EIA (immobilized hapten conjugate) was used to evaluate the responses of mice, screen the MAbs, and quantify imidazolinone analytes. Optimal amounts of imidazolinone-BSA or -OVA conjugate for plate coating and dilutions for the hybridoma culture supernate or antiserum were determined by checkerboard assay. To perform the assay, wells were coated overnight at 4°C with a limiting amount of conjugate in 0.1 mL of coating buffer. Imidazolinone standards (0.5 to 5000 ppb) or unknowns were mixed with a limiting amount of antiserum or hybridoma culture fluid in the diluent and incubated overnight at 4°C in tightly sealed polypropylene tubes. The coated wells were washed and blocked with 0.2 mL of 0.05% gelatin in PBS-Tween for 30 minutes at room temperature. After another wash, aliquots (0.1 mL) of the antibody-analyte mixture were added to wells, and the remainder of the assay was performed as previously described (Karu et al., 1994). • 2. Direct competition EIA. Direct EIAs were performed by capturing the MAb on microwells and allowing the analyte to compete with a HRP-conjugated hapten for binding. Bound HRP-conjugate was then detected with a commercial HRP substrate. The sensitivity of this assay was enhanced by use of a commercial enzymatic signal amplification kit (GIBCO-BRL). Wells were coated with 200 or 500 ng of affinity-purified goat anti-mouse IgG or anti-mouse IgG Fc in the coating buffer at 4°C overnight. The next day, the wells were washed and blocked with PBS-Tween-gelatin for 30 minutes at room temperature, and then incubated for 1.5 hours at room temperature with hybridoma culture supernate. The plates were washed with PBS-Tween, and 0.1 mL of diluent containing the analyte and a limiting amount of biotinylated imidazolinone was added for 1.5 h at room temperature. The wells were washed three times with PBS-Tween, and Extravidin-alkaline phosphatase conjugate (Sigma) was then added for 30 minutes at room temperature. The plates were washed again with TBS (0.05 M Tris-HCl, pH 7.5,― 0.15 M NaCl) to remove remaining inorganic phosphate, which can inhibit the GIBCO-BRL EIA Amplification system. Substrate solution for the amplification step (0.05 mL) was added for 15 minutes at room temperature, followed by 0.05 mL of the enzymatic amplifying solution and chromogen. Color development at 492 nm was recorded. • 3. EIA Data Analysis. Color development was monitored on a Multiskan EIA reader (Flow Laboratories) interfaced with a Macintosh computer, and the rates of the reaction were calculated by linear regression. Competition EIA dose- response curves were fitted with a 4-parameter logistic equation (Karu et al., 1994).

Each structure is given as a SMILES string.

In the case of `CCc1cnc(C2=NC(C)(C(C)C)C(=O)N2)c(C(=O)O)c1` (stereo not shown) [imazethapyr, 5-ethyl-2-(4-isopropyl-4-methyl-5-oxo-2-imidazolin-2-yl) nicotinic acid], the Kd on MAb 3A2 [1] amounted to 11.4 nM; in experiment [2], 73 nM; at MAb 3A2 [3] (hapten conjugate 16-OA), 24.7 nM; on MAb 3A2 [3] (hapten conjugate 17-OA), 51.6 nM; in experiment [4] (hapten conjugate 16-OA), 9.6 nM; in experiment [4] (hapten conjugate 17-OA), 10.8 nM. Moreover, the detection range in experiment [5] lay within 3 to 30 ng/mL.

As a reminder, the Kd is the free concentration of one partner at which half of the binding sites on the other are occupied at equilibrium, for simple one-to-one binding. Lower therefore signals higher affinity.
